Data: patent US20180289713A1, “COMPOUNDS FOR TREATING AMYOTROPHIC LATERAL SCLEROSIS” (Hoffmann-La Roche Inc., priority 2015, published 2018)

System: SMN protein in SMA patient fibroblast cells
Assay: SMN protein assay in cultured cells (SMN HTRF)
Assay type: cell-based, human
Details: concentration producing 1.5 times SMN protein vs vehicle; SMA patient fibroblasts, 48 hours, 7-point curve
Source text: The term “EC1.5× concentration for SMN protein expression” (or “EC1.5× SMN protein”) is defined as that concentration of test compound that is effective in producing 1.5 times the amount of SMN protein in an SMA patient fibroblast cell compared to the amount produced from the vehicle control.
The SMN HTRF (homogeneous time resolved fluorescence) assay is used to quantify the level of SMN protein in SMA patient fibroblast cells treated with test compounds. Materials used and respective sources are listed below in Table 3.
Cells are thawed and cultured in DMEM-10% FBS for 72 hours. Cells are trypsinized, counted and re-suspended to a concentration of 25,000 cells/mL in DMEM-10% FBS. The cell suspensions are plated at 5,000 cells per well in a 96 well microtiter plate and incubated for 3 to […]. Test compounds are serially diluted 3.16-fold in 100% DMSO to generate a 7-point concentration curve. 1 μL of test compound solution is transferred to cell-containing wells and cells are incubated for 48 hours in a cell culture incubator (37° C., 5% CO2, 100% relative humidity). Triplicate samples are set up for each test compound concentration. After 48 hours, the supernatant is removed from the wells and 25 μL of the RIPA lysis buffer, containing protease inhibitors, is added to the wells and incubated with shaking at room temperature for 1 hour. 25 μL of the diluent is added and then 35 μL of the resulting lysate is transferred to a 384-well plate, where each well contains 5 μL of the antibody solution (1:100 dilution of anti-SMN d2 and anti-SMN kryptate in SMN reconstitution buffer). The plate is centrifuged for 1 minute to bring the solution to the bottom of the wells, then incubated overnight at room temperature. Fluorescence for each well of the plate at 665 nm and 620 nm is measured on an EnVision multilabel plate reader (Perkin-Elmer).
The normalized fluorescence signal is calculated for each sample, Blank and vehicle control well by dividing the signal at 665 nm by the signal at 620 nm. Normalizing the signal accounts for possible fluorescence quenching due to the matrix effect of the lysate. The ΔF value (a measurement of SMN protein abundance as a percent value) for each sample well is calculated by subtracting the normalized average fluorescence for the Blank control wells from the normalized fluorescence for each sample well, then dividing this difference by the normalized average fluorescence for the Blank control wells and multiplying the resulting value by 100. The ΔF value for each sample well represents the SMN protein abundance from test compound-treated samples. The ΔF value for each sample well is divided by the ΔF value for the vehicle control wells to calculate the fold increase in SMN protein abundance relative to the vehicle control. Table 4 provides EC1.5× concentrations for SMN protein expression that was obtained from the 7-point concentration data generated according to the above procedure for particular compounds of the present invention.
Table 5 provides the maximum fold increase of SMN protein that was obtained from the 7-point concentration data generated according to the above procedure for particular compounds of the present invention

Structure (SMILES) | EC1.5x SMN protein
Cc1cn2nc(-c3cc(=O)n4cc(N5CCN6CCC[C@@]6(C)C5)ccc4n3)cc(C)c2n1 [Example 5, 7-[(8aS)-8a-methyl-1,3,4,6,7,8-hexahydropyrrolo[1,2-a]pyrazin-2-yl]-2-(2,8-dimethylimidazo[1,2-b]pyridazin-6-yl)pyrido[1,2-a]pyrimidin-4-one] | 4.1 nM
Cc1cn2nc(-c3cc(=O)n4cc(N5CCN6CCC[C@]6(C)C5)ccc4n3)cc(C)c2n1 [Example 6, 7-[(8aR)-8a-methyl-1,3,4,6,7,8-hexahydropyrrolo[1,2-a]pyrazin-2-yl]-2-(2,8-dimethylimidazo[1,2-b]pyridazin-6-yl)pyrido[1,2-a]pyrimidin-4-one] | 11 nM
Cc1cn2nc(-c3cc(=O)n4cc(N5CCN[C@@H](C)C5)ccc4n3)cc(C)c2n1 [Example 8, 2-(2,8-dimethylimidazo[1,2-b]pyridazin-6-yl)-7-[(3S)-3-methylpiperazin-1-yl]pyrido[1,2-a]pyrimidin-4-one] | 5.9 nM
Cc1cn2nc(-c3cc(=O)n4cc(N5CCN[C@H](C)C5)ccc4n3)cc(C)c2n1 [Example 9, 2-(2,8-dimethylimidazo[1,2-b]pyridazin-6-yl)-7-[(3R)-3-methylpiperazin-1-yl]pyrido[1,2-a]pyrimidin-4-one] | 2.5 nM
Cc1cn2nc(-c3cc(=O)n4cc(N5CCN[C@@H](C)C5)ccc4n3)ccc2n1 [Example 11, 2-(2-methylimidazo[1,2-b]pyridazin-6-yl)-7-[(3S)-3-methylpiperazin-1-yl]pyrido[1,2-a]pyrimidin-4-one] | 7 nM
Cc1cn2nc(-c3cc(=O)n4cc(N5CCN[C@H](C)C5)ccc4n3)ccc2n1 [Example 12, 2-(2-methylimidazo[1,2-b]pyridazin-6-yl)-7-[(3R)-3-methylpiperazin-1-yl]pyrido[1,2-a]pyrimidin-4-one] | 7.5 nM
Cc1cn2nc(-c3cc(=O)n4cc(N5CCCNCC5)ccc4n3)ccc2n1 [Example 13, 7-(1,4-diazepan-1-yl)-2-(2-methylimidazo[1,2-b]pyridazin-6-yl)pyrido[1,2-a]pyrimidin-4-one] | 3 nM
Cc1cn2nc(-c3cc(=O)n4cc(N5CCN6CCC[C@@]6(C)C5)ccc4n3)ccc2n1 [Example 16, 7-[(8aS)-8a-methyl-1,3,4,6,7,8-hexahydropyrrolo[1,2-a]pyrazin-2-yl]-2-(2-methylimidazo[1,2-b]pyridazin-6-yl)pyrido[1,2-a]pyrimidin-4-one] | 3 nM
Cc1cn2nc(-c3cc(=O)n4cc(N5CC[C@@H](N6CCCC6)C5)ccc4n3)cc(C)c2n1 [Example 18, 2-(2,8-dimethylimidazo[1,2-b]pyridazin-6-yl)-7-[(3R)-3-pyrrolidin-1-ylpyrrolidin-1-yl]pyrido[1,2-a]pyrimidin-4-one] | 25 nM
Cc1cn2nc(-c3cc(=O)n4cc(N5CCNC6(CC6)C5)ccc4n3)cc(C)c2n1 [Example 20, 7-(4,7-diazaspiro[2.5]octan-7-yl)-2-(2,8-dimethylimidazo[1,2-b]pyridazin-6-yl)pyrido[1,2-a]pyrimidin-4-one] | 37 nM
Cc1cn2nc(-c3cc(=O)n4cc(N5CCN[C@@H](C)C5)cc(C)c4n3)cc(C)c2n1 [Example 24, 2-(2,8-dimethylimidazo[1,2-b]pyridazin-6-yl)-9-methyl-7-[(3S)-3-methylpiperazin-1-yl]pyrido[1,2-a]pyrimidin-4-one] | 4.7 nM
Cc1cn2nc(-c3cc(=O)n4cc(N5C[C@H](C)N[C@@H](C)C5)ccc4n3)cc(C)c2n1 [Example 29, 2-(2,8-dimethylimidazo[1,2-b]pyridazin-6-yl)-7-[(3S,5S)-3,5-dimethylpiperazin-1-yl]pyrido[1,2-a]pyrimidin-4-one] | 2.1 nM
Cc1cn2nc(-c3cc(=O)n4cc(N5C[C@H](C)N[C@@H](C)C5)ccc4n3)ccc2n1 [Example 32, 7-[(3S,5S)-3,5-dimethylpiperazin-1-yl]-2-(2-methylimidazo[1,2-b]pyridazin-6-yl)pyrido[1,2-a]pyrimidin-4-one] | 4 nM
Cc1cn2nc(-c3cc(=O)n4cc(N5CCN[C@@H](C)C5)cc(C)c4n3)ccc2n1 [Example 33, 9-methyl-2-(2-methylimidazo[1,2-b]pyridazin-6-yl)-7-[(3S)-3-methylpiperazin-1-yl]pyrido[1,2-a]pyrimidin-4-one] | 4 nM
Cc1cn2nc(-c3cc(=O)n4cc(N5CCN[C@H](C)C5)cc(C)c4n3)ccc2n1 [Example 34, 9-methyl-2-(2-methylimidazo[1,2-b]pyridazin-6-yl)-7-[(3R)-3-methylpiperazin-1-yl]pyrido[1,2-a]pyrimidin-4-one] | 4.4 nM
Cc1cn2nc(-c3cc(=O)n4cc(N5CCNC6(CC6)C5)cc(C)c4n3)ccc2n1 [Example 37, 7-(4,7-diazaspiro[2.5]octan-7-yl)-9-methyl-2-(2-methylimidazo[1,2-b]ipyridazin-6-yl)pyrido[1,2-a]pyrimidin-4-one] | 45 nM
Cc1cn2nc(-c3cc(=O)n4cc(N5C[C@H](C)N[C@@H](C)C5)cc(C)c4n3)ccc2n1 [Example 38, 7-[(3S,5S)-3,5-dimethylpiperazin-1-yl]-9-methyl-2-(2-methylimidazo[1,2-b]pyridazin-6-yl)pyrido[1,2-a]pyrimidin-4-one] | 3.1 nM
